Test results: PubChem BioAssay AID2305 (GlaxoSmithKline (GSK), 2010)
Where “and” joins values, the source holds several entries; their conditions need not be identical. Equal values may be shown once.

These molecules were tested on P. falciparum 3D7 growth, pLDH absorbance (assay: blood-stage malaria parasite growth potency – strain 3D7, dose response (AID 2305)).

| SMILES | IC50 |
| --- | --- |
| Cc1cc(NCCCCCCNc2cc(C)nc3c(C)cccc23)c2cccc(C)c2n1 | 0.41 µM |
| COc1cc(C)nc2ccc(NC(=O)COCC(=O)Nc3ccc4nc(C)cc(OC)c4c3)cc12 | 0.92 µM |
| CC(C)CNCc1cccc(-c2ccc(CNc3ccc4ncccc4c3)cc2)c1 | 1.06 µM |
| COc1ccc(/C=C/C(=O)NCCCCCN2CCC(c3c[nH]c4ccccc34)CC2)cc1O | 0.96 µM |
| CC(=O)Nc1ccc(CNC2Cc3ccc(-c4ccc(Cl)c(Cl)c4)cc3C2)cc1 (stereo not drawn) | 1 µM |
| CCCCOc1c(CCNCCCCNCCc2cc(OC)c3ccccc3c2OCCCC)cc(OC)c2ccccc12 | 0.92 µM |
| C=Cc1cc(NC(=O)N2CCc3cc(OC)c(C(F)(F)F)cc32)cc(-c2cccnc2)c1 | 0.7 µM |
| CN1CCN(c2cc(-c3ccncc3)nc(-c3cccnc3)n2)CC1 | 0.81 µM |
| c1ccc(C(c2ccccc2)N2CCN(C(c3cccnc3)c3nnnn3C3CCCC3)CC2)cc1 (stereo not drawn) | 1.08 µM |
| O=C(/C=C/c1ccc(C(F)(F)F)cc1)NCCCCCN1CCCN(C(=O)Nc2ccc(Cl)c(C(F)(F)F)c2)CC1 | 0.2 µM |
| CCCCCCCn1c(=O)c(C(=O)Nc2c(C)cccc2C)c(O)c2ccccc21 | 0.91 µM |
| COc1ccc(Cl)cc1NC(=O)Nc1ccc2c(c1)CCN(C1CCC1)CC2 | 0.81 µM |
| Cc1ccc(S(=O)(=O)n2nccc2-c2c(-c3ccc(Cl)cc3)noc2C)cc1 | 0.81 µM |
| CCCCOc1ccc(C(=O)C(CCC(CNC(C)(C)C)C(=O)c2ccc(OCCCC)cc2)CNC(C)(C)C)cc1 (stereo not drawn) | 1.02 µM |
| COc1ccccc1NC(=O)Nc1ccc(-c2ccc(-c3nc4c(C)cccc4[nH]3)s2)cc1 | 0.16 µM |
| c1ccc(CNCCn2c(-c3ccc4c(c3)CCO4)nc3c(N4CCCC4)cccc32)cc1 | 1.13 µM |
| CN(C)CCNc1nccc(N2CCc3ncnc(Nc4ccc(OCc5cccc(F)c5)c(Cl)c4)c3C2)n1 | 0.14 µM |
| Fc1ccc(C=NNc2nc3ccccc3[nH]2)cc1 | 0.78 µM |
| CN1CCN(c2nsc3ccc(-c4ccc(NC(=O)Nc5ccccc5)cc4)cc23)CC1 | 0.18 µM |
| CCS(=O)(=O)Nc1ccc2[nH]cc(C3CCN(CCC4CCN(C(=O)/C=C/c5ccc(Cl)c(Cl)c5)CC4)CC3)c2c1 | 0.53 µM |
| Cc1cccc2[nH]c(-c3ccc(-c4cccc(CNCc5cccc(N)c5)c4)cc3)nc12 | 0.39 µM |
| O=C(NC1CC1)c1ccc(Nc2nccc(-c3c(-c4cccc(NC(=O)c5c(F)cccc5F)c4)nn4ccccc34)n2)cc1 | 0.41 µM |
| Nc1ccc(-c2ccc(NC(=O)Nc3cc(C(F)(F)F)ccc3F)cc2)cn1 | 0.66 µM |
| Cc1cccc(-c2nn(-c3ccccc3)c3[nH]c(=O)c(CNC4CCCC4)cc23)c1 | 0.76 µM |
| Cc1cc(N2CCN(C)CC2)nc2ccc(NC(=O)c3cccc(N(C)C)c3)cc12 | 0.95 µM |
| COc1ccc2nccc([C@@H](O)CN3CCC(NC(=O)C(c4ccsc4)N4CCN(c5ccccc5OC)CC4)CC3)c2c1 (stereo partly drawn) | 0.83 µM |

| SMILES | IC50 |
| --- | --- |
| CN(C)c1cc(NC(=O)Nc2ccccc2)c2ccccc2n1 | 0.41 µM |
| Cc1cccc2[nH]c(-c3ccc(-c4ccc(CNCCCNS(C)(=O)=O)cc4)s3)nc12 | 1 µM |
| CC1CCCN(c2ccc(NC(=O)c3cccs3)cc2[N+](=O)[O-])C1 (stereo not drawn) | 0.67 µM |
| CN1CCC(N(C)C(=O)C=Cc2cn(-c3ccccc3)nc2-c2cc3ccccc3o2)CC1 | 1.34 µM |
| O=C(NCc1cccc(F)c1)Nc1cccc(-c2ccc(-c3nc4ccc(C(F)(F)F)cc4[nH]3)cc2)c1 | 0.77 µM |
| CCOC(=O)c1ccc(Nc2cc(Nc3ccc(C(=O)OCC)cc3)nc(C)n2)cc1 | 0.91 µM |
| CC(C)Cc1csc(NC(=O)C=Cc2ccco2)c1C(=O)O | 0.3 µM |
| CS(=O)(=O)NCCCNCc1ccc(-c2cccc(-c3nc4ccc(C(F)(F)F)cc4[nH]3)c2)cc1 | 0.85 µM |
| Cn1c(N)c(C(=O)CSc2ncc(-c3ccc(F)cc3)n2Cc2ccccc2)c(=O)n(C)c1=O | 0.57 µM |
| c1cc(-c2nc3ccccc3[nH]2)nc(-c2nc3ccccc3[nH]2)c1 | 1.12 µM |
| Cc1ccccc1OCCCc1c(C)nc(N)nc1N | 0.28 µM |
| O=C(C=Cc1ccc(F)c(Br)c1)NC1CCC(CN2CCC(c3c[nH]c4ccccc34)CC2)CC1 (stereo not drawn) | 0.79 µM and 0.84 µM |
| O=c1ccc(-c2nc3cc(Cl)c(Cl)cc3n2Cc2ccc(Cl)cc2Cl)c[nH]1 | 1.11 µM |
| COc1ccc(CC(C)NCC(O)c2ccc(Cl)c(Cl)c2)cc1 (stereo not drawn) | 0.72 µM |
| Cc1ccc(O)cc1Nc1ccnc2cc(-c3ccccn3)ccc12 | 0.76 µM |
| CCCCOc1ccc(-c2nc3ccccc3[nH]2)cc1 | 0.87 µM |
| Cc1cc(OCC2CCN(c3ncc(C(=O)NC4CC4)cc3Cl)CC2)ccc1F | 0.79 µM |
| COC(=O)c1ccc2nc(-c3cc(OC)c(O)c(C(=O)NC4CCN(Cc5ccccc5)CC4)c3)[nH]c2c1 | 1.18 µM |
| CC(=O)Nc1nc(C(=O)Nc2cccc(-c3ccc(-c4nc5c(C)cccc5[nH]4)cc3)c2)cs1 | 0.23 µM |
| N#Cc1cccc(Nc2nccc(NCC(O)c3ccc(C(F)(F)F)cc3)n2)c1 (stereo not drawn) | 0.56 µM |
| CC(c1cccc(S(=O)(=O)NCc2ccc(Cl)cc2Cl)c1)N1CCC(N2CCCCC2)CC1 (stereo not drawn) | 0.75 µM |
| COc1ccc(Cc2c(C)nc3nc(N)nc(N)c3c2C)cc1OC | 0.91 µM |
| CCCCCCc1cc2cc(-c3nc(-c4ccc(OC)cc4)cs3)c(=O)oc2cc1O | 0.82 µM |
| C[C@H]1CN(Cc2cccc(-c3cc(CNC(=O)c4cccc(C(=O)c5ccc(Cl)c(Cl)c5)c4)ccc3F)c2)CCN1 | 1.14 µM |
| N=c1sc2ccccc2n1CC(O)c1ccc(Cl)c(Cl)c1 (stereo not drawn) | 0.8 µM |
| COc1ccc2nccc([C@@H](O)CN3CCC(NCc4cc5ccccc5[nH]c4=O)CC3)c2c1 | 0.18 µM |

| SMILES | IC50 |
| --- | --- |
| CNCCNCc1cccc(-c2cccc(-c3nc4ccc(C(F)(F)F)cc4[nH]3)c2)c1 | 0.2 µM |
| COc1ccc2nccc([C@@H](O)CN3CCC(NC(=O)C(c4cccs4)N4CCN(c5ccc(F)cc5)CC4)CC3)c2c1 (stereo partly drawn) | 0.82 µM |
| CC(C)CNc1nc(N)nc2ccc3c(ccn3CC(C)C)c12 | 0.65 µM |
| CC(C)(C)c1ccc(CN2CCCCC(NC(=O)c3cc(-c4cccc(Cl)c4)cs3)C2)cc1 (stereo not drawn) | 1 µM |
| O=C(Nc1ccc(-c2nc3cc4ccccc4cc3[nH]2)cc1)c1cccc(Br)c1 | 0.36 µM |
| COc1ccc(NC(=O)c2ccc(C=Cc3ccc(C(F)(F)F)cc3)cc2)cc1N1CCN(C)CC1 | 0.42 µM |
| Cc1nnc2c(NC(=O)NC3CCCC3)cc3ccc(-c4cccc(CN(C)C)c4)cc3n12 | 1.16 µM |
| CC(=O)Nc1ccc(C(=O)Nc2ccc(-c3cccc(-c4nc5c(C)cccc5[nH]4)c3)cc2)cn1 | 0.26 µM |
| Oc1ccc(OCc2ccccn2)cc1 | 0.98 µM |
| C=CCn1cc(C2CCN(CCCCNC(=O)c3sc(-c4ccc(C(F)(F)F)cc4)nc3CO)CC2)c2cc(OC)ccc21 | 1.04 µM |
| COc1ccc(-c2cnc(N)c(-c3ccc(C(N)=O)cc3)c2)cc1OC | 0.9 µM |
| O=C1OC(c2ccccc2)(c2ccccc2)CN1C1CCN(Cc2ccc(O)c(Cl)c2)C1 (stereo not drawn) | 0.96 µM |
| CN(C)c1ccc(-c2csc(C(=O)NC3CCCCN(CCC(C)(C)C)C3)c2)cc1 (stereo not drawn) | 1.05 µM |
| N#CC(CC(=O)c1ccc(Cl)cc1)c1cccc(F)c1 (stereo not drawn) | 0.85 µM |
| CN(C)c1ccc(-c2csc(C(=O)NCC3CCN(CCC(C)(C)C)C3)c2)cc1 (stereo not drawn) | 1.5 µM |
| COc1cc2nc(NCc3ccccc3)nc(NCc3ccccc3)c2cc1OC | 0.15 µM |
| COc1cc(Cc2cnc(N)nc2N)cc(OC)c1OC | 0.75 µM |
| COc1cc(Cc2cnc(N)nc2N)cc(OCCn2ccccc2=O)c1OC | 0.77 µM |
| Cc1cccc(-c2c(C)nc(N)nc2N)c1 | 1.15 µM |
| FC(F)(F)c1ccc2c(C=Cc3ccncc3)c[nH]c2c1 | 0.71 µM |
| COc1cc(OC)cc(C(=O)Nc2ccc(Nc3nc(C)cc(N(C)C)n3)cc2)c1 | 0.65 µM |
| CC(C)(C)OC(=O)NCc1ccc(Nc2nnc(-c3ccc(OCC(=O)NC[C@@H]4CC[C@H]5C[C@@H]4C5(C)C)c([N+](=O)[O-])c3)o2)cc1 | 0.91 µM |
| CC(C)CCNC(=O)c1cc(C(=O)c2cc(F)ccc2O)cn(CCC(C)C)c1=O | 0.75 µM |
| CCOc1cc(C(=O)N[C@@H](Cc2ccccc2)[C@H](O)CNCc2cc(OC)cc(OC)c2)cc(N2CCCC2=O)c1 | 0.85 µM |
| COc1ccc2nccc([C@@H](O)CN3CCC(NC(=O)c4ccc(Cl)c([N+](=O)[O-])c4)CC3)c2c1 | 0.95 µM |
| CCc1nc(N)nc(N)c1-c1ccc(C(C)C)cc1 | 0.83 µM |
